# Results published in patent US20170280720A1, “ARGININE […] INHIBITORS AND USES THEREOF” (EPIZYME, INC., priority 2014, published 2017).
# Where a name gives a salt, the structure may show the parent alone.
# Target: T1, human PRMT1 (Homo sapiens, UniProt Q99873)
# T1 construct: GST-tagged PRMT1; made in house; host or cells: High Five insect cells (baculovirus, pFastBacI)
# Assay: PRMT1 biochemical assay (3H-SAM Flashplate, peptide substrate)
# Settings: read-out: PRMT1_ IC50
# Text: S-adenosylmethionine (SAM), S-adenosylhomocysteine (SAH), bicine, Tween20, dimethylsulfoxide (DMSO), bovine skin gelatin (BSG), and Tris(2-carboxyethyl)phosphine hydrochloride solution (TCEP) were purchased from Sigma-Aldrich at the highest level of purity possible. ^3H-SAM was purchase from American Radiolabeled Chemicals with a specific activity of 80 Ci/mmol. 384-well streptavidin Flashplates were purchased from PerkinElmer.
# Peptide representative of human histone H4 residues 36-50 was synthesized with an N-terminal linker-affinity tag motif and a C-terminal amide cap by 21st Century Biochemicals. The peptide was purified by high-performance liquid chromatography (HPLC) to greater than 95% purity and confirmed by liquid chromatography mass spectrometry (LC-MS). The sequence was Biot-Ahx-[…]-amide (SEQ ID NO.: 1).
# Full-length human PRMT1 isoform 1 (NM_001536.5) transcript clone was amplified from an HEK 293 cDNA library, incorporating flanking 5′ sequence encoding a FLAG tag ([…]) (SEQ ID NO.: 2) fused directly to Met 1 of PRMT1. The amplified gene was subcloned into pFastBacI (Life Technologies) modified to encode an N-terminal GST tag and a TEV cleavage sequence ([…] […] […] […] QGGNS)(SEQ ID NO.: 3) fused to Asp of the Flag tag of PRMT1.
# Recombinant baculovirus were generated according to Bac-to-Bac kit instructions (Life Technologies). Protein over-expression was accomplished by infecting exponentially growing High Five insect cell culture at 1.5×10^6 cell/ml with 1:100 ratio of virus. Infections were carried out at 27° C. for 48 hours, harvested by centrifugation, and stored at −80° C. for purification.
# GST-tagged PRMT1 was eluted with 50 mM Tris, 2 mM glutathione, pH 7.8, dialysed in buffer A and concentrated to 1 mg/mL. The purity of recovered protein was 73%. Reference: Wasilko, D. J. and S. E. Lee: “TIPS: titerless infected-cells preservation and scale-up” Bioprocess J., 5 (2006), pp. 29-32.
# General Procedure for PRMT1 Enzyme Assays on Peptide Substrates.
# The assays were all performed in a buffer consisting of 20 mM Bicine (pH=7.6), 1 mM TCEP, 0.005% BSG, and 0.002% Tween 20, prepared on the day of use. Compounds in 100% DMSO (1 ul) were spotted into a polypropylene 384-well V-bottom plates (Greiner) using a Platemate Plus outfitted with a 384-channel head (Thermo Scientific). DMSO (1 ul) was added to Columns 11, 12, 23, 24, rows A-H for the maximum signal control and 1 ul of SAH, a known product and inhibitor of PRMT1, was added to columns 11, 12, 23, 24, rows I-P for the minimum signal control. A cocktail (40 ul) containing the PRMT1 enzyme was added by Multidrop Combi (Thermo-Fisher). The compounds were allowed to incubate with PRMT1 for 30 min at room temperature, then a cocktail (10 ul) containing SAM and peptide was added to initiate the reaction (final volume=51 ul). The final concentrations of the components were as follows: PRMT1 was 0.5 nM, ^3H-SAM was 200 nM, non-radiolabeled SAM was 1.5 uM, peptide was 20 nM, SAH in the minimum signal control wells was 1 mM, and the DMSO concentration was 2%. The assays were stopped by the addition of non-radiolabeled SAM (10 ul) to a final concentration of 300 uM, which dilutes the ^3H-SAM to a level where its incorporation into the peptide substrate is no longer detectable. 50 ul of the reaction in the 384-well polypropylene plate was then transferred to a 384-well Flashplate and the biotinylated peptides were allowed to bind to the streptavidin surface for at least 1 hour before being washed once with 0.1% Tween20 in a Biotek ELx405 plate washer. The plates were then read in a PerkinElmer TopCount plate reader to measure the quantity of ^3H-labeled peptide bound to the Flashplate surface, measured as disintegrations per minute (dpm) or alternatively, referred to as counts per minute (cpm).
# Where dpm=disintegrations per minute, cmpd=signal in assay well, and min and max are the respective minimum and maximum signal controls. […]
# T1 sequence (Q99873 with tags, fused parts or gaps): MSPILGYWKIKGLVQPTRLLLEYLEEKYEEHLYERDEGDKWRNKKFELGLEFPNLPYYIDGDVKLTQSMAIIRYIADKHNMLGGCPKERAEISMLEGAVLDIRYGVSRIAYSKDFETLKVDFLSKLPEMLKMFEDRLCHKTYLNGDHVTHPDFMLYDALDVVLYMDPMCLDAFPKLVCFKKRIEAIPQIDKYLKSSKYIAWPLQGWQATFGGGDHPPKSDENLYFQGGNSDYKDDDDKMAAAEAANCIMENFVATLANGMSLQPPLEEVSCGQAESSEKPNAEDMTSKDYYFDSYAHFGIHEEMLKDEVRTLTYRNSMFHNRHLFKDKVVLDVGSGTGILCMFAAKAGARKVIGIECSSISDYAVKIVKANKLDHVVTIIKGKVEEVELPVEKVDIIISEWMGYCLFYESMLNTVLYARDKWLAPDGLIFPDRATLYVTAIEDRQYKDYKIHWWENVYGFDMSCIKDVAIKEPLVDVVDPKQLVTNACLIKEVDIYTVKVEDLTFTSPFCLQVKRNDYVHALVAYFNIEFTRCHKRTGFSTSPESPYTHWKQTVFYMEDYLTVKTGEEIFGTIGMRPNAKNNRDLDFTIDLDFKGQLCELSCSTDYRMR
row,Compound,IC50 [nM]
1,CNCCN(C)Cc1cccc(-c2cc(OC3CCOC3)c3cnn(C(C)C)c3n2)c1 (stereo not drawn) [Compound 102],492
2,CNCCN(C)Cc1cccc(-c2cc(C(=O)NCc3cc(C)nn3C)c3cnn(C(C)C)c3n2)c1 [Compound 120],718
3,CCS(=O)(=O)Nc1cc(-c2cccc(CN(C)CCN)c2)nc2c1cnn2C(C)C [Compound 111],585
4,COc1ccccc1Cn1cnc2ccc(-c3ccc(CNCCN)cc3)cc21 [Compound 80],345
5,CNCCN(C)Cc1cccc(-c2cc(C(=O)NCCCC(=O)NCc3ccn(C)n3)c3cnn(C(C)C)c3n2)c1 [Compound 88],413
6,CNCCN(C)Cc1cccc(-c2cc(C(=O)NCC3CCOCC3)c3cnn(C(C)C)c3n2)c1 [Compound 105],548
7,NCCNCc1ccc(-c2ccc3ncn(Cc4ccc(C(=O)N5CCCC5)cc4)c3c2)cc1 [Compound 104],531
8,CC(C)n1ncc2c(C(=O)NCc3ccccc3Cl)cc(-c3cccc(CN(C)CCN)c3)nc21 [Compound 54],231
9,CN(CCN)Cc1cccc(-c2nc(NC3CC3)c3cnn(C4CC4)c3n2)c1 [Compound 96],451
10,CNCCN(C)Cc1cccc(-c2ccc3nc[nH]c3c2)c1 [Compound 75],312
11,Cc1c(CNc2nc(-c3cccc(CN(C)CCN)c3)nc3c2cnn3C2CC2)cnn1C [Compound 52],226
12,CNCCN(C)Cc1cccc(-c2ccc3ncn(C)c3c2)c1 [Compound 92],432
13,Cc1cccc(-n2cnc3ccc(-c4ccc(CNCCN)cc4)cc32)c1 [Compound 106],558
14,CNCCN(C)Cc1cccc(-c2nc(NCc3cnn(C)c3C)c3cnn(C4CC4)c3n2)c1 [Compound 57],238
15,CC(C)n1ncc2c(C(=O)NCC3CCOCC3)cc(-c3cccc(CN(C)CCN)c3)nc21 [Compound 108],568
16,CC(C)n1ncc2c(C(=O)N[C@@H](C)c3ccccc3)cc(-c3cccc(CNCCN)c3)cc21 [Compound 125],783
17,CC(C)n1ncc2c(NC3CCOCC3)cc(-c3cccc(CN(C)CCN)c3)nc21 [Compound 101],488
18,CNCCN(C)Cc1cccc(-c2nc(NCc3cn4ccsc4n3)c3cnn(C4CC4)c3n2)c1 [Compound 6],36.9
19,CNCCN(C)Cc1cccc(-c2cc(C(=O)NCCC(=O)NCC3CCOCC3)c3cnn(C(C)C)c3n2)c1 [Compound 64],271

row,Compound,IC50 [nM]
1,CNCCN(C)Cc1cccc(-c2cc(N3CCC(C#N)CC3)c3cnn(C(C)C)c3n2)c1 [Compound 93],433
2,CCC(O)c1cc(-c2cccc(CN(C)CCNC)c2)nc2c1cnn2C(C)C (stereo not drawn) [Compound 48],212
3,CNCCN(C)Cc1cccc(-c2cc(C(=O)N3CCCCC3)c3cnn(C(C)C)c3n2)c1 [Compound 56],238
4,CNCCN(C)Cc1cccc(-c2ccc3cnn(C(C)C)c3c2)c1 [Compound 100],477
5,CNCCN(C)Cc1cccc(-c2nc(NCc3ccccn3)c3cnn(C4CC4)c3n2)c1 [Compound 9],47.3
6,CN(CCN)Cc1cccc(-c2nc(NCc3cn4ccsc4n3)c3cnn(C4CC4)c3n2)c1 [Compound 5],36.9
7,CNCCN(C)Cc1cccc(-c2nc(NCc3cccnc3)c3cnn(C4CC4)c3n2)c1 [Compound 63],262
8,CNCCN(C)Cc1cccc(-c2nc(NCc3ccncc3)c3cnn(C4CC4)c3n2)c1 [Compound 69],282
9,CCOc1cc(-c2cccc(CN(C)CCNC)c2)nc2c1cnn2C(C)C [Compound 53],228
10,CNCCN(C)Cc1cccc(-c2cc(OC)c3cnn(C(C)C)c3n2)c1 [Compound 124],770
11,COc1cccc(CCn2cnc3ccc(-c4ccc(CNCCN)cc4)cc32)c1 [Compound 94],446
12,Cc1c(C(=O)NCc2ccccc2)cc(-c2ccc(CN(C)CCN)cc2)c2cn[nH]c12 [Compound 7],45.2
13,Cc1ccc(Cn2cnc3ccc(-c4ccc(CNCCN)cc4)cc32)cc1 [Compound 97],452
14,CNCCN(C)Cc1cccc(-c2cc(N(C)C)c3cnn(C(C)C)c3n2)c1 [Compound 103],517
15,CCOC(=O)c1cc(-c2cccc(CN(C)CCNC)c2)nc2c1cnn2C(C)C [Compound 78],337
16,CNCCN(C)Cc1cccc(-c2cc(N3CCOCC3)c3cnn(C(C)C)c3n2)c1 [Compound 68],277
17,CC(C)n1ncc2c(NC(=O)N(C)C)cc(-c3cccc(CN(C)CCN)c3)nc21 [Compound 116],640
18,CNCCN(C)Cc1cccc(-c2cc(N3CCC(OC)CC3)c3cnn(C(C)C)c3n2)c1 [Compound 51],226
19,"CC(C)n1ncc2c(N3CCOCC3)cc(-c3cccc(CN(C)CCN)c3)nc21 [Compound 61, N1-(3-(1-isopropyl-4-morpholino-1H-pyrazolo[3,4-b]pyridin-6-yl)benzyl)-N1-methylethane-1,2-diamine]",249

row,Compound,IC50 [nM]
1,CNCCN(C)Cc1cccc(-c2nc(N3CCOCC3)c3cnn(C(C)C)c3n2)c1 [Compound 99],457
2,COC(=O)Nc1cc(-c2cccc(CN(C)CCN)c2)nc2c1cnn2C(C)C [Compound 71],302
3,CC(C)n1cc2c(Cl)cc(-c3cccc(CN(C)CCN)c3)nc2n1 [Compound 59],244
4,"CNCCN(C)Cc1cccc(-c2cc(N3CCOCC3)n3ncc(C(C)C)c3n2)c1 [Compound 62, N1-(3-(3-isopropyl-7-morpholinopyrazolo[1,5-a]pyrimidin-5-yl)benzyl)-N1,N2-dimethylethane-1,2-diamine formate]",258
5,CNCCN(C)Cc1cccc(-c2cc(NC3CCOCC3)c3cnn(C(C)C)c3n2)c1 [Compound 76],317
6,CC(C)n1ncc2c(NS(=O)(=O)N(C)C)cc(-c3cccc(CN(C)CCN)c3)nc21 [Compound 107],562
7,CN(CCN)Cc1cccc(-c2nc(N(C)C3CCOCC3)c3cnn(C4CC4)c3n2)c1 [Compound 119],714
8,CC(C)NC(=O)Nc1cc(-c2cccc(CN(C)CCN)c2)nc2c1cnn2C(C)C [Compound 86],397
9,CNCCN(C)Cc1cccc(-c2cc(C#N)c3cnn(C(C)C)c3n2)c1 [Compound 74],309
10,CNCCN(C)Cc1cccc(-c2cc(NC)c3cnn(C(C)C)c3n2)c1 [Compound 121],721
11,NCCNCc1ccc(-c2ccc3ncn(CC4CCNCC4)c3c2)cc1 [Compound 70],295
12,CNCCN(C)Cc1cccc(-c2cc(N3CCCC(C#N)C3)c3cnn(C(C)C)c3n2)c1 (stereo not drawn) [Compound 55],236
13,"CNCCN(C)Cc1cccc(-c2cc(-c3cnn(C)c3)c3cnn(C(C)C)c3n2)c1 [Compound 49, N1-(3-(1-isopropyl-4-(1-methyl-1H-pyrazol-4-yl)-1H-pyrazolo[3,4-b]pyridin-6-yl)benzyl)-N1,N2-dimethylethane-1,2-diamine]",213
14,CN(CCN)Cc1cccc(-c2nc(NCc3ccncc3)c3cnn(C4CC4)c3n2)c1 [Compound 66],274
15,CC(C)n1ncc2c(C(=O)NCc3ccccc3F)cc(-c3cccc(CN(C)CCN)c3)nc21 [Compound 65],271
16,NCCNCc1ccc(-c2ccc3ncn(CC4CCCNC4)c3c2)cc1 (stereo not drawn) [Compound 81],359
17,COc1cccc(-n2cnc3ccc(-c4ccc(CNCCN)cc4)cc32)c1 [Compound 110],583
18,CNCCN(C)Cc1cccc(-c2cc(C(=O)NCCC(=O)NCc3ccn(C)n3)c3cnn(C(C)C)c3n2)c1 [Compound 83],378
19,COc1ccccc1-c1nc2ccc(-c3ccc(CNCCN)cc3)cc2[nH]1 [Compound 115],629
